Reference: EP4703359A1 (Shanghai Simr Biotechnology Co., Ltd., priority 2023, dated 2024)

How the values were obtained:
[1] = target: T1, α2-GABAA receptor (Homo sapiens, UniProt P18507+P47869); assay: Radioactive ligand (3H-flunitrazepam) competitive binding assay, BZD site of membrane proteins of α2-GABAAR-HEK293 cells; settings: competition with 1 nM 3H-flunitrazepam; HEK293 membranes expressing α2, β3, γ2 subunits; Ki calculated from IC50; read-out: α2 Ki
T1 construct: expressed in transfected cells
Text: The α subunit, β subunit, and γ subunit are indispensable for forming a fully functional GABAA receptor. In this example, HEK293 cells stably expressing α2-GABAA receptors (α2-GABAAR) were constructed and screened respectively via liposome transfection (Felgner, P.L., et al. Proceedings of the National Academy of Sciences, 1987, 84: 7413-7417). The α2-GABAAR-HEK293 cell model co-expresses the α2 subunit (protein sequence referenced under GenBank accession number: NM_000807.4), β3 subunit (protein sequence referenced under GenBank accession number: NM_000814.5), and γ2 subunit (protein sequence referenced under GenBank accession number: NM_000816.3).
The above cell lines were subcultured. α2-GABAAR-HEK293 cells were amplified for testing the affinity of compounds to the benzodiazepine (BZD) site of GABAA receptors. Some of the α2-GABAAR-HEK293 cells in suspension during subculturing were plated on glass slides pre-treated with Poly-D-Lysine for electrophysiological testing (method reference: Patent CN 107344936 A, paragraph 0586).
The affinity of the compound for the α2-GABAA receptor was determined by competing with ^3H-flunitrazepam (isotope ^3H-labeled flunitrazepam) for binding to the BZD site of membrane proteins in HEK293 cells stably expressing human α2-GABAAR.
Membrane preparation: Cells were suspended in 50 mM Tris-HCl buffer (pH=7.4), homogenized on ice using a homogenizer for 20 seconds with 10 repetitions, and centrifuged at 4°C, 1000g for 10 minutes. The supernatant was collected, and the above steps were repeated. The supernatant was centrifuged at 4°C (33,800 × g; Thermo, rotor: A27-8x50) for 60 minutes, and the pellet was resuspended in Tris buffer (50 mM Tris-HCl, 10 mM MgCl2, 0.5 mM EDTA, 10% glycerol). The protein concentration was determined using the bicinchoninic acid (BCA) protein assay based on the copper ion reduction method (BCA kit purchased from Pierce (Annoron)). Aliquots of 1 mL were prepared and stored at -80°C.
Radioactive ligand competitive binding assay: This assay was conducted in a 200 µL system (96-well plate), containing 100 µL of cell membrane. The concentration of ^3H-flunitrazepam was 1 nM, and the concentration of the test compound ranged from […]. Flumazenil was used as a control. The low signal control well (Low Control, LC) was added with 1 µL of 2 mM flumazenil (final concentration 10 µM), while the high signal control well (High Control, HC) was added with 1 µL of dimethyl sulfoxide. The final concentration of the target membrane protein was 5 µg/well. All test compound stock solutions were prepared as 10 mM solutions in dimethyl sulfoxide. The working concentration of the samples was prepared by diluting all samples to 0.2 mM with dimethyl sulfoxide, followed by a 4-fold serial dilution to obtain a total of 8 concentration gradients. The 96-well plate was sealed with sealing film and then incubated on a shaker at room temperature for 1 hour. The GF/C filter plate was also soaked with a soaking buffer (0.3% PEI (polyethyleneimine, purchased from: Sigma-Aldrich, model: P314), stored at 4°C) for at least 0.5 hours. After the incubation was completed, the mixture was collected onto a GF/C filter plate using a cell harvester and washed four times with wash buffer (50 mM Tris-HCl, pH 7.4, stored at 4°C). After drying in a 50°C oven for 1 hour, the dried GF/C filter plate was sealed at the bottom with a film. The residual radioactivity on the filter membrane was detected using liquid scintillation counting. Each well was filled with 50 µL of scintillation fluid and sealed. Readings were taken using a Microbeta^2 (microplate counter, purchased from PerkinElmer, model: CNLL0153). The inhibitory activity of the test sample on the binding of ^3H-flunitrazepam to GABAA receptor membrane protein was calculated. […]

[2] = target: T1, α2-GABAA receptor; assay: Whole-cell patch-clamp electrophysiology, positive allosteric modulatory activity in α2-GABAAR-HEK293 cells; assay type: cell-based; settings: compound 100 nM; GABA 0.10 to 0.11 µM (approximately EC7-8); normalized to reference compound CVL-865 (= 100%); read-out: α2-GABAAR Positive allosteric modulatory activity
Method in brief: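 HEK293 cells stably co-expressing α2β3γ2 GABAA receptor, whole-cell patch clamp at -60 mV. Compounds at 100 nM final applied with GABA 0.10–0.11 µM (~EC7-8) after GABA-only current stabilized. […]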

Row | Structure (SMILES) | Ki [1] | Emax at 0.1 µM [2]
1 | CCCNC(=O)c1nc2c(-c3cccnc3OC)cccn2c1N [Example 82, 3-Amino-8-(2-methoxypyridin-3-yl)-N-propylimidazo[1,2-a]pyridine-2-carboxamide] | 0.0223 µM | 93%
2 | CCCNC(=O)c1nc2c(-c3cc(C)cnc3OC)cccn2c1N [Example 83, 3-Amino-8-(2-methoxy-5-methylpyridin-3-yl)-N-propylimidazo[1,2-a]pyridine-2-carboxamide] | 0.0059 µM | 164%
3 | CCCNC(=O)c1nc2c(-c3cc(F)cnc3OC)cccn2c1N [Example 84, 3-Amino-8-(5-fluoro-2-methoxypyridin-3-yl)-N-propylimidazo[1,2-a]pyridine-2-carboxamide] | 0.042 µM | 133%
4 | CCCNC(=O)c1nc2c(-c3cnccc3OC)cccn2c1N [Example 85, 3-Amino-8-(4-methoxypyridin-3-yl)-N-propylimidazo[1,2-a]pyridine-2-carboxamide] | 0.0172 µM | 100%
5 | CCCNC(=O)c1nc2c(-c3cc4c(cc3OC)N(C)C(=O)CO4)cccn2c1N [Example 91, 3-Amino-8-(6-methoxy-4-methyl-3-oxo-3,4-dihydro-2H-benzo[b][1,4]oxazin-7-yl)-N-propylimidazo[1,2-a]pyridine-2-carboxamide] | 0.027 µM | 93%
6 | CCCNC(=O)c1nc2c(-c3c(F)ccc4c3oc(=O)n4C)cccn2c1N [Example 105, 3-Amino-8-(6-fluoro-3-methyl-2-oxo-2,3-dihydrobenzo[d]oxazol-7-yl)-N-propylimidazo [1,2-a] pyridine-2-carboxamide] | 0.0396 µM | 160%
7 | CCCNC(=O)c1nc2c(-c3cc4c(cc3OC)N(C)C(=O)CO4)c(F)ccn2c1N [Example 123, 3-Amino-7-fluoro-8-(6-methoxy-4-methyl-3-oxo-3,4-dihydro-2H-benzo[b][1,4]oxazin-7-yl)-N-propylimidazo[1,2-a]pyridine-2-carboxamide] | 0.00497 µM | 71%
8 | CCCNC(=O)c1nc2c(N3CCOCC3C)cccn2c1N (stereo not shown) [Example 149, 3-Amino-8-(3-methylmorpholino)-N-propylimidazo[1,2-a]pyridine-2-carboxamide] | 0.09 µM | 44%

Results, then the compound that gave them:

Row | Ki [1] | Emax at 0.1 µM [2] | Structure (SMILES)
9 | 0.0129 µM | 101% | CCCNC(=O)c1nc2c(-c3c(OC)ccc(F)c3F)cccn2c1N [Example 76, 3-Amino-8-(2,3-difluoro-6-methoxyphenyl)-N-propylimidazo[1,2-a]pyridine-2-carboxamide]
10 | 0.00517 µM | 126% | CCCNC(=O)c1nc2c(-c3c(OC)ccc(C)c3F)cccn2c1N [Example 77, 3-Amino-8-(2-fluoro-6-methoxy-3-methylphenyl)-N-propylimidazo[1,2-a]pyridine-2-carboxamide]
11 | 0.0317 µM | 74% | CCCNC(=O)c1nc2c(-c3c(F)ccc(C)c3OC)cccn2c1N [Example 78, 3-Amino-8-(6-fluoro-2-methoxy-3-methylphenyl)-N-propylimidazo[1,2-a]pyridine-2-carboxamide]
12 | 0.0401 µM | 71% | CCCNC(=O)c1nc2c(-c3c(F)ccc(F)c3OC)cccn2c1N [Example 79, 3-Amino-8-(3,6-difluoro-2-methoxyphenyl)-N-propylimidazo[1,2-a]pyridine-2-carboxamide]
13 | 0.0114 µM | 105% | CCCNC(=O)c1nc2c(-c3c(F)cccc3OC)c(F)ccn2c1N [Example 122, 3-Amino-7-fluoro-8-(2-fluoro-6-methoxyphenyl)-N-propylimidazo[1,2-a]pyridine-2-carboxamide]
14 | 0.0811 µM | 60% | CCCNC(=O)c1nc2c(-c3c(F)cccc3OC)nccn2c1N [Example 135, 3-amino-8-(2-fluoro-6-methoxyphenyl)-N-propylimidazo[1,2-a]pyrazine-2-carboxamide]
15 | 0.0176 µM | 91% | [2H]c1ccc(OC)c(-c2cccn3c(N)c(C(=O)NCCC)nc23)c1F [Example 136, 3-Amino-8-(2-fluoro-6-methoxyphenyl-3-d)-N-propylimidazo[1,2-a]pyridine-2-carboxamide]
16 | 0.0135 µM | 97% | [2H]c1ccc(F)c(-c2cccn3c(N)c(C(=O)NCCC)nc23)c1OC [Example 137, 3-Amino-8-(2-fluoro-6-methoxyphenyl-5-d)-N-propylimidazo[1,2-a]pyridine-2-carboxamide]
17 | 0.0111 µM | 77% | [2H]C([2H])([2H])Oc1cccc(F)c1-c1cccn2c(N)c(C(=O)NCCC)nc12 [Example 138, 3-Amino-8-(2-fluoro-6-(methoxy-d3)phenyl)-N-propylimidazo[1,2-a]pyridine-2-carboxamide]
18 | 0.00497 µM | 95% | CCCNC(=O)c1nc2c(Oc3cc(F)ccc3OC)cccn2c1N [Example 144, 3-Amino-8-(5-fluoro-2-methoxyphenoxy)-N-propylimidazo[1,2-a]pyridine-2-carboxamide]
19 | 0.00446 µM | 107% | CCCNC(=O)c1nc2c(-c3c(F)cccc3OC)c(C#N)ccn2c1N [Example 148, 3-Amino-7-cyano-8-(2-fluoro-6-methoxyphenyl)-N-propylimidazo[1,2-a]pyridine-2-carboxamide]
20 | 0.087 µM | 35% | CCCNC(=O)c1nc2c(OCc3c(F)cccc3OC)cccn2c1N [Example 151, 3-Amino-8-((2-fluoro-6-methoxybenzyl)oxy)-N-propylimidazo[1,2-a]pyridine-2-carboxamide]
